Legend:
Fuji apples = assay: Field thinning study, fruit set and fruit weight of Fuji apples; assay type: in vivo, apple
Source text: ACC was foliar applied at the 10 or 20 mm fruit stage. […] Application of 100 ppm ACC was particularly effective in removing fruit when applied at the 20 mm fruit stage.
Similarly, ACC applications at petal fall were not effective for thinning Fuji apples, but later applications (10 and 20 mm) were effective (Table 14).

Pink Lady apples = assay: Field thinning study, fruit set of Pink Lady apples; assay type: in vivo, apple; conditions: for Number of fruit per limb / Total number of fruit: 5 days after full bloom
Garnet Beauty peaches = assay: Field thinning study, fruit set of Garnet Beauty peaches; assay type: in vivo, peach; conditions: application at petal fall
Procedure: (§1) A series of field studies on stone fruit thinning were performed over several seasons, on different varieties and in various locations to determine the consistency of the thinning effect of ACC. Even without the application of a chemical thinning agent, crop load (number of fruit remaining divided by the number of flowers or fruit prior to application) was variable. Chemical thinning of stone fruit is variable and dependent on many factors including variety and environment. An acceptable chemical thinning agent is one that gives a substantial and relatively consistent reduction in crop load for a given dose over a wide range of trials.
Follow up studies confirmed that higher rates (500 or 750 ppm ACC) produced a moderate to heavy crop load on Babygold #5 at two locations (Tables 8 and 9) and Garnet Beauty (Table 10).

Babygold #5 peaches = assay: Scaffold gummosis rating of Babygold #5 peaches; assay type: in vivo, peach; conditions: in vivo
Source text: Gummosis is a physiological stress response in which sap oozes from fractures in tree bark and often leads to tree decline. Use of 2-chloroethylphosphonic acid as a stone fruit thinning has been limited because it can stimulate severe incidences of gummosis of stone fruit.

O'Henry peaches = assay: Field thinning study, fruit set, fruit weight and crop safety of O'Henry peaches
Chardonnay grapes = assay: Thinning study on Chardonnay grapes (cluster weight, berry weight, berries per rachis, rachis length); assay type: in vivo, grape; conditions: application at bloom
Source text: Application of ACC on grapes during bloom reduced the cluster weight and number of berries/cm rachis (Table 15). However, ACC applications produce the highly undesirable effect of reducing the rachis length and cluster size. Similar results have been seen in trials on other grape varieties in Michigan, California, and Australia.

Tatura 204 peaches = assay: Field thinning study, fruit set of Tatura 204 peaches; assay type: in vivo, peach; conditions: application at late shuck fall
Procedure: as §1
ACC was sprayed on Tatura 204 peach trees at late shuck fall (Table 3).

[1] = 100 ppm, application timing 10 mm
[2] = 100 ppm, application timing 20 mm
[3] = 300 ppm, application timing 10 mm
[4] = 300 ppm, application timing 20 mm
[5] = 1000 ppm, application timing 10 mm
[6] = 1000 ppm, application timing 20 mm

NC1(C(=O)O)CC1 [ACC, 1-aminocyclopropane carboxylic acid]
Fruit weight (Fuji apples; [1]): 95 g
Fruit/fruit cluster (Fuji apples; [1]): 0.79
Fruit weight (Fuji apples; [2]): 130 g
Fruit/fruit cluster (Fuji apples; [2]): 0.54
Fruit weight (Fuji apples; [3]): 117 g
Fruit/fruit cluster (Fuji apples; [3]): 0.66
Fruit weight (Fuji apples; [4]): 132 g
Fruit/fruit cluster (Fuji apples; [4]): 0.41
Fruit per fruit cluster (Fuji apples; 500 ppm, timing 10 mm (6-7 mm) (Table 14 trial)): 0.27
Fruit per fruit cluster (Fuji apples; 500 ppm, timing 20 mm (Table 14 trial)): 0.33
Fruit per fruit cluster (Fuji apples; 500 ppm, timing petal fall (Table 14 trial)): 0.49
Fruit weight (Fuji apples; [5]): 157 g
Fruit/fruit cluster (Fuji apples; [5]): 0.28
Fruit weight (Fuji apples; [6]): 161 g
Fruit/fruit cluster (Fuji apples; [6]): 0.03
Fruit per fruit cluster (Fuji apples; 1000 ppm, timing 10 mm (6-7 mm) (Table 14 trial)): 0.10
Fruit per fruit cluster (Fuji apples; 1000 ppm, timing petal fall (Table 14 trial)): 0.39
Thinning of Fuji apples (in words) (Fuji apples; applications at petal fall): not effective
Number of fruit per limb (Pink Lady apples; 100 ppm): 64
Total number of fruit (Pink Lady apples; 100 ppm): 175
Number of fruit per limb (Pink Lady apples; 300 ppm): 62
Total number of fruit (Pink Lady apples; 300 ppm): 165
Number of fruit per limb (Pink Lady apples; 500 ppm): 61
Total number of fruit (Pink Lady apples; 500 ppm): 169
Number of fruit per limb (Pink Lady apples; 1000 ppm): 58
Total number of fruit (Pink Lady apples; 1000 ppm): 124
Crop load (in words) (Pink Lady apples; highest rate tested (1000 ppm), early application (full bloom)): reduced crop load slightly
Crop load (percent) of treated trees compared to the untreated control (Garnet Beauty peaches; 500 ppm): 82%
Percent fruit set (Garnet Beauty peaches; 500 ppm): 27%
Crop load (percent) of treated trees compared to the untreated control (Garnet Beauty peaches; 750 ppm): 58%
Percent fruit set (Garnet Beauty peaches; 750 ppm): 19%
Gummosis (in words) (Babygold #5 peaches): little gummosis
Crop load (percent) of treated trees compared to the untreated control (O'Henry peaches; 500 ppm at 15 mm fruit stage): 38%
Crop safety on vegetation (0-4 scale) (O'Henry peaches; 500 ppm at 15 mm fruit stage): 0.7 0-4 scale
Fruit weight at maturity (O'Henry peaches; 500 ppm at 15 mm fruit stage): 185 g
Percent fruit set (O'Henry peaches; 500 ppm at 15 mm fruit stage): 16%
Crop load (percent) of treated trees compared to the untreated control (O'Henry peaches; 500 ppm at petal fall): 79%
Crop safety on vegetation (0-4 scale) (O'Henry peaches; 500 ppm at petal fall): 0 0-4 scale
Fruit weight at maturity (O'Henry peaches; 500 ppm at petal fall): 200 g
Percent fruit set (O'Henry peaches; 500 ppm at petal fall): 23%
Crop load (percent) of treated trees compared to the untreated control (O'Henry peaches; 750 ppm at 15 mm fruit stage): 21%
Crop safety on vegetation (0-4 scale) (O'Henry peaches; 750 ppm at 15 mm fruit stage): 2.1 0-4 scale
Fruit weight at maturity (O'Henry peaches; 750 ppm at 15 mm fruit stage): 235 g
Percent fruit set (O'Henry peaches; 750 ppm at 15 mm fruit stage): 6%
Crop load (percent) of treated trees compared to the untreated control (O'Henry peaches; 750 ppm at petal fall): 55%
Crop safety on vegetation (0-4 scale) (O'Henry peaches; 750 ppm at petal fall): 0.5 0-4 scale
Fruit weight at maturity (O'Henry peaches; 750 ppm at petal fall): 205 g
Percent fruit set (O'Henry peaches; 750 ppm at petal fall): 11%
Berries per cm rachis (Chardonnay grapes; 100 ppm): 3.1
Berry weight (Chardonnay grapes; 100 ppm): 1.2 g
Cluster weight (Chardonnay grapes; 100 ppm): 128 g
Rachis length (cm) (Chardonnay grapes; 100 ppm): 34 cm
Berries per cm rachis (Chardonnay grapes; 300 ppm): 2.9
Berry weight (Chardonnay grapes; 300 ppm): 1.2 g
Cluster weight (Chardonnay grapes; 300 ppm): 78 g
Rachis length (cm) (Chardonnay grapes; 300 ppm): 23 cm
Berries per cm rachis (Chardonnay grapes; 1000 ppm): 1.6
Berry weight (Chardonnay grapes; 1000 ppm): 1.1 g
Cluster weight (Chardonnay grapes; 1000 ppm): 24 g
Rachis length (cm) (Chardonnay grapes; 1000 ppm): 14 cm
Crop load (percent) of treated trees compared to the untreated control (Tatura 204 peaches; 100 ppm): 86%
Percent fruit set (Tatura 204 peaches; 100 ppm): 65%
Crop load (percent) of treated trees compared to the untreated control (Tatura 204 peaches; 300 ppm): 57%
Percent fruit set (Tatura 204 peaches; 300 ppm): 43%
Crop load (percent) of treated trees compared to the untreated control (Tatura 204 peaches; 500 ppm): 39%
Percent fruit set (Tatura 204 peaches; 500 ppm): 30%
Crop load (percent) of treated trees compared to the untreated control (Tatura 204 peaches; 1000 ppm): 36%
Percent fruit set (Tatura 204 peaches; 1000 ppm): 27%
